Assay results taken from ChEMBL document CHEMBL3621171, “Synthesis and evaluation of 8,4'-dideshydroxy-leinamycin revealing new insights into the structure-activity relationship of the anticancer natural product leinamycin” (Bioorg Med Chem Lett, 2015).

Experiments:
Format in all cases: functional, cell-based
MDA-MB-231 = experiment: Cytotoxicity against human MDA-MB-231 cells after 4 days by MTT assay; conditions: MDA-MB-231, 96 h
[1] = Cytotoxicity against human SKBR cells after 4 days by MTT assay; conditions: 96 h
Raji = experiment: Cytotoxicity against human Raji cells after 4 days by MTT assay; conditions: 96 h
T47D = experiment: Cytotoxicity against human T47D cells after 4 days by MTT assay; conditions: 96 h
MCF7 = experiment: Cytotoxicity against human MCF7 cells after 4 days by MTT assay; conditions: MCF7, 96 h
A-375 = experiment: Cytotoxicity against human A375 cells after 4 days by MTT assay; conditions: A-375, 96 h

Structure (SMILES) | EC50 (MDA-MB-231) | EC50 [1] | EC50 (Raji) | EC50 (T47D) | EC50 (MCF7) | EC50 (A-375)
C/C1=C\[C@@H](O)C(=O)/C=C/C=C\c2csc(n2)[C@@H](C)NC(=O)C[C@@]2(CC1)[S+]([O-])SC(=O)[C@]2(C)O (stereo not given in full) [LEINAMYCIN] | 8.99 nM | 52.3 nM | 6.29 nM | 15.2 nM | 42.4 nM | 4.69 nM
C/C1=C\CC(=O)/C=C/C=C\c2csc(n2)[C@@H](C)NC(=O)C[C@@]2(CC1)SSC(=O)[C@@H]2C | > 10000 nM | > 10000 nM | 48.7 nM | > 10000 nM | > 10000 nM | > 10000 nM
C/C1=C\CC(=O)/C=C/C=C\c2csc(n2)[C@@H](C)NC(=O)C[C@]2(CC1)[C@@H](C)C(=O)S[S+]2[O-] (stereo not given in full) | 71.4 nM | 251 nM | 8.21 nM | 196 nM | 275 nM | 12.5 nM
C/C1=C\CC(=O)/C=C/C=C\c2csc(n2)[C@@H](C)NC(=O)C[C@@]2(CC1)SC(=O)[C@@H]2C | 1950 nM | 7370 nM | > 10000 nM | > 10000 nM | 8560 nM | > 10000 nM
C/C1=C\CC(=O)/C=C/C=C\c2csc(n2)[C@@H](C)NC(=O)C[C@@](S)([C@@H](C)C(=O)O)CC1 | > 10000 nM | > 10000 nM | > 10000 nM | > 10000 nM | > 10000 nM | > 10000 nM
